Laboratory results from patent publication US12630536B2, “Cyanotriazine derivative, preparation method therefor, and application thereof” (Chengdu Fanxi Biopharma Co., LTD., priority 2020, dated 2026).

How the values were obtained:
[1] = system: TR alpha-UAS-bla HEK 293T Cells; test: TR cell-based agonist detection, β-lactamase reporter (LiveBLAzer FRET B/G), TR alpha; conditions: Homo sapiens
Protocol: (§1) A method for testing a THR-α/β activation activity of a compound by an in-vitro cell level was as follows.
(§2) Compounds were transferred to a 384-well plate by an ECHO liquid workstation, and each compound was diluted by 3 times with 10 gradient concentrations, which was in triplicate. 1.5×10^4 DMEM-cultured cells (TR beta-UAS-bla HEK 293T Cells) or 1.0×10^4 TR alpha-UAS-bla HEK 293T Cells were placed in the 384-well plate. HEK 293T-TR beta was incubated in an incubator for 16 hours, and HEK 293T-TR alpha was incubated in an incubator for 24 hours. A LiveBLAzer™-FRET B/G (CCF4-AM) substrate was added into the cell plate to detect expression of β-lactamase in cells, and under excitation of 409 nm, a product produced fluorescence with a wavelength of 447 nm. When the β-lactamase was not expressed, under excitation of 409 nm, fluorescence with a wavelength of 520 nm was directly produced through FRET. Combination between the compound and the protein was determined by detecting a ratio of the two kinds of fluorescence (blue/green, 460 nm/530 nm), thus calculating EC50 of the compound. […] Calculation of a factor Z (greater than 0.5) would be used for monitoring a stability of each experiment.

[2] = system: golden hamsters fed with high-fat feedstuffs (hyperlipidemia model); test: In-vivo pharmacodynamic test, high-fat feed hyperlipidemia model; conditions: oral once per day, 4 weeks
Protocol: Administration mode: oral administration was carried out once per day with a time interval of 24 hours for 4 consecutive weeks. During the experiment, the animals were weighed twice per week, and a remaining amount and an adding amount of the feedstuffs were recorded before each blood sampling detection for calculating a food intake of each group of animals during administration.
The food utilization rate represents a weight gain in gram of an animal taking per 100 g of feedstuffs, so that food utilization rate=weight gain (g)/food intake (100 g)×100%.

[3] = system: TR beta-UAS-bla HEK 293T Cells; test: TR cell-based agonist detection, β-lactamase reporter (LiveBLAzer FRET B/G), TR beta
Protocol: as §1, §2

**Q.** With `CC(C)c1cc(Oc2c(Cl)cc(-n3nc(C#N)c(=O)[nH]c3=O)cc2Cl)n[nH]c1=O` [MGL3196, reference compound] as the molecule, how does the Emax ([1]; HEK-293T, 24 h, TR_cell-based agonist, TR_α, read-out: Maximum activity ratio) read?
**A.** 134%

**Q.** And the EC50 ([1]; Detection of TR_cell-based agonist, HEK 293T-TR alpha, 24 hours, read-out: TR_α_EC50)?
**A.** 2770 nM

**Q.** And the “food utilization rate (weight gain (g)/food intake (100 g)×100%)” value [2]?
**A.** increased to some extent

**Q.** What about the Emax ([3]; Homo sapiens, HEK-293T, 16 h, TR_cell-based agonist, TR_β, read-out: Maximum activity ratio (A460/A530)) of the same molecule?
**A.** 37.7%

**Q.** What about the EC50 ([3]; Homo sapiens, Detection of TR_cell-based agonist, HEK 293T-TR beta, 16 hours, read-out: TR_β_EC50) of the same molecule?
**A.** 1050 nM

**Q.** And the α/β ([3]; TR_cell-based agonist, ratio TR_α EC50 / TR_β EC50)?
**A.** 2.62
